The results in this text go back to US11236069B2, “KIF18A inhibitors” (AMGEN INC., priority 2018, dated 2022).

The structures appear in SMILES notation. pIC50: −log10 of the molar value.

In the test the target is Recombinant human KIF18A (1-467 His-tagged) protein (Homo sapiens (Human), UniProt Q8NI77). In words: KIF18A Enzyme Assay: microtubule-stimulated ATPase activity (ADP-Glo). The settings on record: read-out: KIF18A ATPase IC50; 30 nM KIF18A, 30 μg/mL pig microtubules, ATP at Km 75 μM, ADP-Glo luminescence. For orientation: ADP-Glo first removes unused ATP, then detects ADP through luciferase.
Chain of Recombinant human KIF18A (1-467 His-tagged) protein (Q8NI77 1-467): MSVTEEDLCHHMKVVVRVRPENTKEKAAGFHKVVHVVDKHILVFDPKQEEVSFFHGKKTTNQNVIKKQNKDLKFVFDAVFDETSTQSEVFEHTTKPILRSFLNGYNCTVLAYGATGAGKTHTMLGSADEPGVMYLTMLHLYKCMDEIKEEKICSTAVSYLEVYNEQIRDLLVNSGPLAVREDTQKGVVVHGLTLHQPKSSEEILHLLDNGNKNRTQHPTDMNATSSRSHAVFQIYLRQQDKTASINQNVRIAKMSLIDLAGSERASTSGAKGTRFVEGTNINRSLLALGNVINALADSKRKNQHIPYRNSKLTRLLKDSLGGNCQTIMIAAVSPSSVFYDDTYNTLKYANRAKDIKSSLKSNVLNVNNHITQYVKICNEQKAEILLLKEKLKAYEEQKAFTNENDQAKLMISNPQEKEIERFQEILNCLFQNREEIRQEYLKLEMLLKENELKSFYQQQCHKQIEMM
Chain of Recombinant human KIF18A (1-467 His-tagged) protein (P02550 whole entry partner): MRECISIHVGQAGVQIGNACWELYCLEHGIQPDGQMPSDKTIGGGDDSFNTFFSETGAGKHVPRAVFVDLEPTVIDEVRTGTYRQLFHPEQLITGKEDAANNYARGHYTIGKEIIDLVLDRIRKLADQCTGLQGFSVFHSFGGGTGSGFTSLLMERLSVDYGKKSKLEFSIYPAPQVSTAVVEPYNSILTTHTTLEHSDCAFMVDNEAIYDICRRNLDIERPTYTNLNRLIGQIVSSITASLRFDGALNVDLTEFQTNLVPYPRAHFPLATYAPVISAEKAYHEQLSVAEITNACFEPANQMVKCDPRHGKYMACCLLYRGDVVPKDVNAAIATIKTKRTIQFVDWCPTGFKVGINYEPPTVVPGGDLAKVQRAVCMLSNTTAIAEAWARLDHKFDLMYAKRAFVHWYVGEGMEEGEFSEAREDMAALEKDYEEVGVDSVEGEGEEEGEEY
Chain of Recombinant human KIF18A (1-467 His-tagged) protein (P02554 whole entry partner): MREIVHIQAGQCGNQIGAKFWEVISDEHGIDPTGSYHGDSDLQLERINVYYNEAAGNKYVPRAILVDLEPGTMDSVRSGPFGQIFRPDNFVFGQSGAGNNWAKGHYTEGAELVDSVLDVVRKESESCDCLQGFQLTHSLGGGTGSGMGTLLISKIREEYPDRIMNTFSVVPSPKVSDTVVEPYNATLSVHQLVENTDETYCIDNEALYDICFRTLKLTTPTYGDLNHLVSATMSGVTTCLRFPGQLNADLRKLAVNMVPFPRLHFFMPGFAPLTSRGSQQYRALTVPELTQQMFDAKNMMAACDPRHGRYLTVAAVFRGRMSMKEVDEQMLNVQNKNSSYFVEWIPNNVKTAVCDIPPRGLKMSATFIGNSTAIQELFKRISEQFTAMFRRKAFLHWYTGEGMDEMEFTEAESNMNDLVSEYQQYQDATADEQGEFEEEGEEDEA
Source text: KIF18A Enzyme Assay: Microtubule-stimulated ATPase activity assay is used to measure KIF18A enzyme activity after treatment with compound. Compounds were 2-fold serially diluted in DMSO (Sigma Inc) over 22-point concentration range. […] The assay measures ADP formed from the ATPase reaction.
As for `Cc1cc(NC(=O)c2ccc(NS(=O)(=O)CCO)cc2N2CCC3(CC2)CC3)nc(N2CCOC3(CC3)C2)n1` [Example 11-47, 4-((2-Hydroxyethyl)sulfonamido)-N-(6-methyl-2-(4-oxa-7-azaspiro[2.5]octan-7-yl)pyrimidin-4-yl)-2-(6-azaspiro[2.5]octan-6-yl)benzamide], the pIC50 is 7.02.
`Cc1cc(NC(=O)c2cc(F)c(NS(=O)(=O)[C@@H](C)CO)cc2N2CCC3(CC2)CC3)nc(N2CCC(F)(F)CC2)n1` (single isomer, unassigned) [Example 8-2]: the negative-log IC50 (pIC50) is 7.14.
With `Cc1cc(NC(=O)c2ccc(S(=O)(=O)NCCO)cc2N2CCC3(CC2)CC3)nc(N2CC(F)(F)C2)n1` [Example 17-5, N-(2-(3,3-Difluoroazetidin-1-yl)-6-methylpyrimidin-4-yl)-4-(N-(2-hydroxyethyl)sulfamoyl)-2-(6-azaspiro[2.5]octan-6-yl)benzamide], the negative-log IC50 (pIC50) was 6.88.
Next, `Cc1cc(NC(=O)c2ccc(S(=O)(=O)NC3(C)COC3)cc2N2CCC3(CC2)CC3)nc(N2CCO[C@H](C)C2)n1` [Example 2-3, (R)-N-(6-Methyl-2-(2-methylmorpholino)pyrimidin-4-yl)-4-(N-(3-methyloxetan-3-yl)sulfamoyl)-2-(6-azaspiro[2.5]octan-6-yl)benzamide]: 6.94; `Cc1cc(NC(=O)c2ccc(NS(=O)(=O)CCO)cc2N2CCC3(CC2)CC3)cc(OCCC(F)(F)F)n1` [Example 11-60, 4-((2-Hydroxyethyl)sulfonamido)-N-(2-methyl-6-(3,3,3-trifluoropropoxy)pyridin-4-yl)-2(6-azaspiro[2.5]octan-6-yl)benzamide]: 7.08.
As for `Cc1cc(NC(=O)c2ccc(NS(=O)(=O)C[C@@H](C)O)cc2N2CCC3(CC2)CC3)nc(N2CC(F)(F)C2)n1` (single isomer, unassigned) [Example 10-1], the figure is 7.08; as for `Cc1cc(NC(=O)c2ccc(NS(=O)(=O)C3(CO)CC3)cc2N2CCC3(CC2)CC3)nc(N2CC(F)(F)C2)n1` [Example 11-68, N-(2-(3,3-Difluoroazetidin-1-yl)-6-methylpyrimidin-4-yl)-4-((1-(hydroxymethyl)cyclopropane)-1-sulfonamido)-2-(6-azaspiro[2.5]octan-6-yl)benzamide], 7.28.
Next, `C[C@@H]1CN(c2nccc(NC(=O)c3cc(F)c(NS(=O)(=O)CCO)cc3N3CCC4(CC3)CC4)n2)CCO1` [Example 9-1, (R)-5-Fluoro-4-((2-hydroxyethyl)sulfonamido)-N-(2-(2-methylmorpholino)pyrimidin-4-yl)-2-(6-azaspiro[2.5]octan-6-yl)benzamide]: 7.11; `Cc1cc(NC(=O)c2ccc(NS(=O)(=O)C3CCOC3)cc2N2CCC3(CC2)CC3)nc(N2CC(F)(F)C2)n1` (stereo in doubt) [Example 11-71, (R)-N-(2-(3,3-Difluoroazetidin-1-yl)-6-methylpyrimidin-4-yl)-2-(6-azaspiro[2.5]octan-6-yl)-4-((tetrahydrofuran)-3-sulfonamido)benzamide]: 7.38.
Regarding `Cc1cc(NC(=O)c2ccc(NS(=O)(=O)CCO)cc2N2CCC3(CC2)CC3)nc(OC(C)C)n1` [Example 11-79, 4-((2-Hydroxyethyl)sulfonamido)-N-(2-isopropoxy-6-methylpyrimidin-4-yl)-2-(6-azaspiro[2.5]octan-6-yl)benzamide], the pIC50 was 7.24.
Consider `Cc1cc(NC(=O)c2cc(F)c(NS(=O)(=O)CCO)cc2N2CCC3(CC2)CC3)nc(N2CCO[C@H](C)C2)n1` [Example 9-2, (R)-5-Fluoro-4-((2-hydroxyethyl)sulfonamido)-N-(6-methyl-2-(2-methylmorpholino)pyrimidin-4-yl)-2-(6-azaspiro[2.5]octan-6-yl)benzamide], for which the pIC50 was 6.80.
As for `Cc1cc(NC(=O)c2ccc(NS(=O)(=O)CCO)cc2N2CCC3(CC2)CC3)nc(N2CC(O)C2)n1` [Example 11-20, N-(2-(3-Hydroxyazetidin-1-yl)-6-methylpyrimidin-4-yl)-4-((2-hydroxyethyl)sulfonamido)-2-(6-azaspiro[2.5]octan-6-yl)benzamide], the figure is 7.32.
Next, `Cc1cc(NC(=O)c2ccc(NS(=O)(=O)CCO)cc2N2CCC3(CC2)CC3)nc(N2CCC(C)(O)CC2)n1` [Example 11-38, N-(2-(4-Hydroxy-4-methylpiperidin-1-yl)-6-methylpyrimidin-4-yl)-4-((2-hydroxyethyl)sulfonamido)-2-(6-azaspiro[2.5]octan-6-yl)benzamide]: 7.19.
As to `Cc1cc(NC(=O)c2ccc(NS(=O)(=O)CCO)cc2N2CCC3(CCC3)CC2)nc(N2CCC(F)(F)CC2)n1` [Example 11-40, N-(2-(4,4-Difluoropiperidin-1-yl)-6-methylpyrimidin-4-yl)-4-((2-hydroxyethyl)sulfonamido)-2-(7-azaspiro[3.5]nonan-7-yl)benzamide], the negative logarithm of the IC50 (pIC50) was 6.96.
Regarding `Cc1cc(NC(=O)c2ccc(NS(=O)(=O)C(C)(C)CO)cc2N2CCC3(CC2)CC3)nc(N2CCC(F)(F)CC2)n1` [Example 6-20, N-(2-(4,4-Difluoropiperidin-1-yl)-6-methylpyrimidin-4-yl)-4-((2-hydroxy-1,1-dimethylethyl)sulfonamido)-2-(6-azaspiro[2.5]octan-6-yl)benzamide], the negative-log IC50 (pIC50) was 7.31.
As for `C[C@H](O)CS(=O)(=O)Nc1ccc(C(=O)Nc2ccnc(N3CCO[C@H](C)C3)n2)c(N2CCC3(CC2)CC3)c1` [Example 6-33-1, 4-(((S)-2-Hydroxypropyl)sulfonamido)-N-(2-((R)-2-methylmorpholino)pyrimidin-4-yl)-2-(6-azaspiro[2.5]octan-6-yl)benzamide], the figure is 6.94; as for `Cc1cc(NC(=O)c2ccc(NS(C)(=O)=O)cc2N2CCC3(CC2)CC3)nc(N2CC(F)(F)C2)n1` [Example 11-24, N-(2-(3,3-Difluoroazetidin-1-yl)-6-methylpyrimidin-4-yl)-4-(methylsulfonamido)-2-(6-azaspiro[2.5]octan-6-yl)benzamide], 7.26.
Next, `Cc1cc(NC(=O)c2ccc(NS(=O)(=O)CCO)cc2N2CCC3(CC2)CC3)nc(N2CCC[C@@H](C#N)C2)n1` [Example 11-34, (R)-N-(2-(3-Cyanopiperidin-1-yl)-6-methylpyrimidin-4-yl)-4-((2-hydroxyethyl)sulfonamido)-2-(6-azaspiro[2.5]octan-6-yl)benzamide]: 7.04; `COCCS(=O)(=O)Nc1ccc(C(=O)Nc2cc(C)nc(N3CCC(F)(F)CC3)n2)c(N2CCC3(CC2)CC3)c1` [Example 6-17, N-(2-(4,4-Difluoropiperidin-1-yl)-6-methylpyrimidin-4-yl)-4-((2-methoxyethyl)sulfonamido)-2-(6-azaspiro[2.5]octan-6-yL)benzamide]: 7.49; `C[C@@H](CO)S(=O)(=O)Nc1ccc(C(=O)Nc2ccnc(N3CCC(F)(F)CC3)n2)c(N2CCC3(CC2)CC3)c1` [Example 6-26-1, (S)-N-(2-(4,4-Difluoropiperidin-1-yl)pyrimidin-4-yl)-4-((2-hydroxy-1-methylethyl)sulfonamido)-2-(6-azaspiro[2.5]octan-6-yl)benzamide]: 7.51.
As for `Cc1cc(NC(=O)c2ccc(N3CCOCS3(=O)=O)cc2N2CCC3(CC2)CC3)nc(N2CCC(F)(F)CC2)n1` [Example 6-9, N-(2-(4,4-Difluoropiperidin-1-yl)-6-methylpyrimidin-4-yl)-4-(3,3-dioxido-1,3,4-oxathiazinan-4-yl)-2-(6-azaspiro[2.5]octan-6-yl)benzamide], the figure is 6.61.
For `Cc1cc(NC(=O)c2ccc(NS(=O)(=O)CCO)cc2N2CCC3(CC2)CC3)nc(N2CCC3(CC2)CC3)n1` [Example 11-31, 4-((2-Hydroxyethyl)sulfonamido)-N-(6-methyl-2-(6-azaspiro[2.5]octan-6-yl)pyrimidin-4-yl)-2-(6-azaspiro[2.5]octan-6-yl)benzamide], the pIC50 is 6.84.
Next, `Cc1cc(NC(=O)c2ccc(S(=O)(=O)C3COC3)cc2N2CCC3(CC2)CC3)nc(N2CCC(F)(F)CC2)n1` [Example 14-1, N-(2-(4,4-Difluoropiperidin-1-yl)-6-methylpyrimidin-4-yl)-4-(oxetan-3-ylsulfonyl)-2-(6-azaspiro[2.5]octan-6-yl)benzamide]: 6.74.
As for `Cc1cc(NC(=O)c2ccc(S(=O)(=O)C3CN(C)C3)cc2N2CCC3(CC2)CC3)nc(N2CCC(F)(F)CC2)n1` [Example 22, N-(2-(4,4-Difluoropiperidin-1-yl)-6-methylpyrimidin-4-yl)-4-((1-methylazetidin-3-yl)sulfonyl)-2-(6-azaspiro[2.5]octan-6-yl)benzamide], the figure is 6.39; as for `Cc1cc(NC(=O)c2ccc(NS(=O)(=O)C3CCC3)cc2N2CCC3(CC2)CC3)nc(N2CC(F)(F)C2)n1` [Example 6-13, 4-(Cyclobutanesulfonamido)-N-(2-(3,3-difluoroazetidin-1-yl)-6-methylpyrimidin-4-yl)-2-(6-azaspiro[2.5]octan-6-yl)benzamide], 7.28; as for `Cc1cc(NC(=O)c2ccc(NS(=O)(=O)CCO)cc2N2CCC3(CC2)CC3)nc(N2CC(C)(O)C2)n1` [Example 11-15, N-(2-(3-Hydroxy-3-methylazetidin-1-yl)-6-methylpyrimidin-4-yl)-4-((2-hydroxyethyl)sulfonamido)-2-(6-azaspiro[2.5]octan-6-yl)benzamide], 6.03.
Next, `CCS(=O)(=O)Nc1ccc(C(=O)Nc2cc(C)nc(N3CCO[C@H](C)C3)n2)c(N2CCC3(CC2)CC3)c1` [Example 6-6, (R)-4-(Ethylsulfonamido)-N-(6-methyl-2-(2-methylmorpholino)pyrimidin-4-yl)-2-(6-azaspiro[2.5]octan-6-yl)benzamide]: 7.17; `Cc1cc(NC(=O)c2ccc(NS(=O)(=O)C[C@H](C)O)cc2N2CCC3(CC2)CC3)nc(OCCC(F)(F)F)n1` [Example 6-28-2, (S)-4-((2-Hydroxypropyl)sulfonamido)-N-(6-methyl-2-(3,3,3-trifluoropropoxy)pyrimidin-4-yl)-2-(6-azaspiro[2.5]octan-6-yl)benzamide]: 7.15.

The term pIC50 denotes the negative decadic logarithm of the IC50, by convention in mol/L.
